Measurements taken from patent US20240124436A1 (priority 2019, published 2024).
Like-named read-outs stand apart in the source and are kept apart here.

Tested on: pathogens of rice blast
Format: cell-based
Details: 25° C., 6 days, elongation length of hyphae

With `COc1nc(-c2nccs2)nc(F)c1C(F)(F)F` [Example 3, 6-fluoro-4-methoxy-2-(2-thiazolyl)-5-(trifluoromethyl)pyrimidine] the Control value (test solution 1000 ppm, 1,000 μl on oatmeal culture medium) was 68 and the Control value (test solution 2000 ppm, 1,000 μl on oatmeal culture medium) was 100.
